Reference: US11312676B2, “Small molecule stimulators of steroid receptor coactivator proteins and their use in the treatment of cancer” (BAYLOR COLLEGE OF MEDICINE, priority 2014, dated 2022)

Tests used:
[1] = tested on: MMP2 promoter; experiment: MMP2-luc reporter with SRC-3 expression vector in HeLa cells; format: cell-based; conditions: 24 hours
Experimental: (§1) The constructs expressing the Gal4 responsive luciferase reporter (pG5-luc), Gal4 DBD fusion with SRC-1, […] (pBIND-SRC-1/-2/-3), MMP2 or MMP13 promoter driven luciferase reporter (MMP2-luc, MMP13-luc) were prepared. Twenty-four hours before transfection, HeLa cells were plated in 24-well dishes. The indicated expression plasmids were transfected into cells using Lipofectamine 2000 according to the manufacturer's instructions.
(§2) After various compound treatments, cells were lysed in luciferase lysis buffer and assayed for luciferase activity using the ONE-Glo luciferase assay system (Promega, Madison, Wis.). All luciferase activities were normalized to protein concentration determined by Bradford assay (Bio-Rad, Hercules, Calif.).

[2] = biological target: T1, receptor interacting domain (RID) of SRC-3 (Homo sapiens, UniProt Q9Y6Q9); experiment: Fluorescence spectroscopy, intrinsic fluorescence quenching of GST SRC-3 RID; format: binding; conditions: 1.5 μM GST SRC-3 RID, excitation 278 nm; read-out: half-affecting concentration of intrinsic fluorescence quenching, SRC-3 RID
T1 construct: A total of 1.5 μM of GST SRC-3 RID, CID or bHLH was placed in a fluorescence cuvette; made in house
Experimental: (§3) Fluorescence spectrometric measurements were performed on a SLM 48000S fluorescence spectrophotometer (SLM-Aminco, Rochester, N.Y.) and an Agilent Cary Eclipse Fluorescence spectrophotometer (Agilent Technologies, Inc., Santa Clara, Calif.) using the GST fusion proteins of different portions of SRC-3 expressed and purified. A total of 1.5 μM of GST SRC-3 RID, CID or bHLH was placed in a fluorescence cuvette and excited by UV light at a wavelength of 278 nm with a 2 nm bandwidth and the emission spectra were recorded from 290 nm to above 500 nm with a bandwidth of 4 nm. The aliquot size of test compound was maintained below 5% of the total sample volume in order to minimize the effects of dilution.

[3] = biological target: T2, CBP interacting domain (CID) of SRC-3 (Homo sapiens, UniProt Q9Y6Q9); experiment: Fluorescence spectroscopy, intrinsic fluorescence quenching of GST SRC-3 CID; format: binding; conditions: 1.5 μM GST SRC-3 CID
T2 construct: made in house
Experimental: as §3

[4] = tested on: MCF-7 (breast) cells; experiment: MTS cell viability assay, MCF-7; format: cell-based; conditions: MCF-7, 48 hours
Experimental: (§4) Cell lines were maintained in DMEM (HeLa, MCF-7, HepG2), RPMI 1640 (H1299), or DMEM/F12 (PC-3) supplemented with 10% fetal calf serum, penicillin and streptomycin (100 U/ml). Primary mouse hepatocytes were isolated and cultured. Mouse embryonic fibroblasts (MEF) were cultured in DMEM. All cells were maintained at 37° C. under 5% CO2.
(§5) Cells were seeded in 96-well plates and allowed to reach 70% to 80% confluence. After indicated compound treatments, relative numbers of viable cells were measured by MTS assay using the Cell Titer 96 Aqueous One Solution Cell Proliferation Assay (Promega).

[5] = tested on: HepG2 (liver) cells; experiment: MTS cell viability assay, HepG2; format: cell-based; conditions: HepG2, 48 hours
Experimental: as §4, §5

[6] = tested on: human pediatric GBM tumor; experiment: Patient derived xenograft pediatric GBM model, survival; format: in vivo; conditions: treated every day for 14 days, tumor cells in mouse brainstem
Experimental: A tumor from a human patient was transferred directly into a mouse host (patient derived xenograft) without culturing on a plastic substrate. Tumor cells (50,000) were injected into mouse brainstems and allowed to proliferate for 14 days. Animals were treated every day with either MCB-613 (test group) or vehicle (control group) for 14 days. The animals were then housed with no further experimental manipulation. Overall survival was recorded from the experimental and control groups.

[7] = tested on: HeLa cells; experiment: MTS cell viability assay, HeLa cells; format: cell-based; conditions: SRC-3 KO vs WT HeLa, 24 hours
[8] = biological target: T3, SRC-3-CBP-CARM1 complex (Homo sapiens, UniProt Q9Y6Q9); experiment: Coimmunoprecipitation of FLAG-SRC-3 with CBP and CARM1 in HeLa cells; format: cell-based; conditions: HeLa cells overexpressing FLAG-SRC-3, one hour, dose-dependent
T3 construct: expressed in transfected cells; host or cells: HeLa
Experimental: (§6) For Western blotting, cells were harvested and lysed in lysis buffer (50 mM Tris, pH 8.0, 150 mM NaCl, 10% glycerol, 0.5% NP40, protease and phosphatase inhibitor) and then centrifuged for 15 min at 14000 rpm at 4° C. After total cellular protein concentration was determined by Bradford analysis (Bio-Rad, Hercules, Calif.), protein lysates were loaded onto and resolved by sodium dodecyl sulfate-polyacrylamide gel electrophoresis (SDS-PAGE) and transferred to PVDF membranes (BioRad) which were blocked and incubated with indicated antibodies. For immunoprecipitation, 10 μg of plasmid encoding FLAG-SRC-3 was transfected into HeLa cells with 90% confluence in one 10 cm plate with lipofectamine 2000 (Invitrogen). Twenty-four hours after transfection, the cells were treated with MCB-613 for one hour and lysed with lysis buffer (25 mM Tris-Cl pH7.5, 150 mM NaCl, 5% glycerol, 1 mM EDTA, 1% Triton X-100, protease and phosphatase inhibitor) at 4° C. After a 30-second sonication, the lysate was cleared by centrifugation at 14000 rpm at 4° C. for 15 minutes and was incubated with anti-Flag-M2 agarose affinity gel (Sigma) for four hours. The agarose gel was washed four times with washing buffer (25 mM Tris pH 8.0, 150 mM NaCl, 1 mM EDTA, 1% Triton X-100) and resuspended with SDS loading buffer for Western blotting. […]

[9] = tested on: Abl kinase; experiment: CrkL (Y207) phosphorylation as marker for Abl activation in HeLa cells; format: cell-based; conditions: 1 hour and 4 hours
Experimental: as §6

[10] = tested on: MMP13 expression; experiment: qRT-PCR of endogenous MMP13 in MDA-MB-231 cells; format: cell-based; conditions: 24 hours
[11] = tested on: HeLa cells; experiment: Western blot of stress, UPR, autophagy and apoptosis markers in HeLa cells; format: cell-based
Experimental: For Western blotting, cells were harvested and lysed in lysis buffer (50 mM Tris, pH 8.0, 150 mM NaCl, 10% glycerol, 0.5% NP40, protease and phosphatase inhibitor) and then centrifuged for 15 min at 14000 rpm at 4° C. After total cellular protein concentration was determined by Bradford analysis (Bio-Rad, Hercules, Calif.), protein lysates were loaded onto and resolved by sodium dodecyl sulfate-polyacrylamide gel electrophoresis (SDS-PAGE) and transferred to PVDF membranes (BioRad) which were blocked and incubated with indicated antibodies. For immunoprecipitation, 10 μg of plasmid encoding FLAG-SRC-3 was transfected into HeLa cells with 90% confluence in one 10 cm plate with lipofectamine 2000 (Invitrogen). Twenty-four hours after transfection, the cells were treated with MCB-613 for one hour and lysed with lysis buffer (25 mM Tris-Cl pH7.5, 150 mM NaCl, 5% glycerol, 1 mM EDTA, 1% Triton X-100, protease and phosphatase inhibitor) at 4° C. After a 30-second sonication, the lysate was cleared by centrifugation at 14000 rpm at 4° C. for 15 minutes and was incubated with anti-Flag-M2 agarose affinity gel (Sigma) for four hours. The agarose gel was washed four times with washing buffer (25 mM Tris pH 8.0, 150 mM NaCl, 1 mM EDTA, 1% Triton X-100) and resuspended with SDS loading buffer for Western blotting.

[12] = biological target: SRC-1 (Homo sapiens, UniProt Q15788); experiment: Gal4 luciferase reporter assay (pBIND-SRC-1 + pG5-LUC) in HeLa cells; format: cell-based; design: expressed in transfected cells; host or cells: HeLa; conditions: 24-hour treatment, 5-8 μM, maximum over SRC-1/-2/-3
Experimental: as §1, §2

T2 sequence (Q9Y6Q9 1023-1093 limits assumed): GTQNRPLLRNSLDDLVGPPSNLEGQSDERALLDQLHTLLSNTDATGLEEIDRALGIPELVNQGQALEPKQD
Chain of SRC-1 (Q15788 whole entry, the tested form may be a part): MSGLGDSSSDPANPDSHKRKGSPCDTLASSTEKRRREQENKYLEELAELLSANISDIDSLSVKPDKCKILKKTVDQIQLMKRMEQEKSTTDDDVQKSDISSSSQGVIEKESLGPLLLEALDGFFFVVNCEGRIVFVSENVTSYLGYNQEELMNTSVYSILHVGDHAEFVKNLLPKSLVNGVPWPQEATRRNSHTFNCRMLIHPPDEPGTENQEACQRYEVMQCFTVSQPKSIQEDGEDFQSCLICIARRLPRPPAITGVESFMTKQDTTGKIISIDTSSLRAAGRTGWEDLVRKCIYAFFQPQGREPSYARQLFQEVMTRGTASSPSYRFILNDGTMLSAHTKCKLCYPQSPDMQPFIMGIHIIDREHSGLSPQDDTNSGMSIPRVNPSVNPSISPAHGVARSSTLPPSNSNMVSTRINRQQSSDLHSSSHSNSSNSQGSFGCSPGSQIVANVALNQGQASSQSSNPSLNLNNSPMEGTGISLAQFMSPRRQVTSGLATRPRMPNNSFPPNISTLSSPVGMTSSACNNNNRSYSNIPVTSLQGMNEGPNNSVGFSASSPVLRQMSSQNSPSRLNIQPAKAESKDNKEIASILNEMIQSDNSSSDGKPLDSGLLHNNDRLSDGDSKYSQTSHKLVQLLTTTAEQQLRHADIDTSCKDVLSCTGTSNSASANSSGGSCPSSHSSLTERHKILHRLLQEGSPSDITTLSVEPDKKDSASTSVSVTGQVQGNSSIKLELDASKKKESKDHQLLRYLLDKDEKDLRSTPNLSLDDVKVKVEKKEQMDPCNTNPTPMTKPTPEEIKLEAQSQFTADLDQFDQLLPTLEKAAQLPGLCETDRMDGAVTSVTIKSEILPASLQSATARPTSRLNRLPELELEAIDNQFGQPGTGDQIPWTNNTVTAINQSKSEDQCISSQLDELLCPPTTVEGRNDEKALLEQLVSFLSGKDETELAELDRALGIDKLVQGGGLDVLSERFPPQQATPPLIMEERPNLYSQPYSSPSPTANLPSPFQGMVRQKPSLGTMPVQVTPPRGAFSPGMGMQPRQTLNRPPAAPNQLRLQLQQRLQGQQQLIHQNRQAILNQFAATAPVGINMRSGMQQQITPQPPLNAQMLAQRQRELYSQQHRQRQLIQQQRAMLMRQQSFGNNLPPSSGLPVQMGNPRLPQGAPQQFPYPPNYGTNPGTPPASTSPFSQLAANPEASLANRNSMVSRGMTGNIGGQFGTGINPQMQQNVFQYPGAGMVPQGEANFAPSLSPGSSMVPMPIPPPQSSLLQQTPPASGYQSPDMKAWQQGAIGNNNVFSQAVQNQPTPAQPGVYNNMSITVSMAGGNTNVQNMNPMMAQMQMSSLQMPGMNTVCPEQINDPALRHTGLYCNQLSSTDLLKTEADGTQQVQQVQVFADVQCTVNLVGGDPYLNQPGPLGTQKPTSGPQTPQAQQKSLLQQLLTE
T1 sequence (Q9Y6Q9 582-840 limits assumed): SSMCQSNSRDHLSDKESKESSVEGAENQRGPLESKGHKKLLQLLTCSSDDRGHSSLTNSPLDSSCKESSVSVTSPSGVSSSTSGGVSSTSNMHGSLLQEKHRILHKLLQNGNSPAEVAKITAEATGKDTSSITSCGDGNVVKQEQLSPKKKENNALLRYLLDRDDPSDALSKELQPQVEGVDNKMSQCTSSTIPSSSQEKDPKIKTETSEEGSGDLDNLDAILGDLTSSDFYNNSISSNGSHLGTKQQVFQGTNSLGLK

CCC1CC(=Cc2cccnc2)C(=O)C(=Cc2cccnc2)C1 (stereo not shown) [MCB-613, 4-Ethyl-2,6-bis-pyridin-3-ylmethylene-cyclohexanone]
SRC-3's coactivation of the MMP2 promoter [1]: greatly enhanced
EC50 [2]: 10 µM
concentration required to detect fluorescence quenching of the CID [3]: at least 20 μM
cytotoxicity, cell viability [4]: efficiently kill
cytotoxicity, cell viability [5]: efficiently kill
overall survival [6]: extends survival time
viability of SRC-3 KO HeLa cells compared with WT cells [7]: less affected
SRC-3's interaction with CBP and CARM1 [8]: increased
activation of Abl (CrkL Y207 phosphorylation) [9]: activation of Abl could be observed as early as one hour
endogenous MMP13 expression [10]: activated
proteasome function and ER stress (polyubiquitinated proteins, UPR markers) ([11]; 4-5 hours): leads to proteasome dysfunction and ER stress
autophagy and apoptosis markers ([11]; 24 hours): led to the induction of LC3BII and caspase-3 cleavage
induction in the activity of pBIND-SRC-1 [12]: ≤ 160 fold
